Active and inactive are the calls of the source. The calls are words filed in the database; no cut-off is given here.

A word on the Ki: it is the equilibrium dissociation constant of an inhibitor or competing ligand from its target. The low end stands for a stronger hold on the target, the high end for a looser hold on the target.

Assay [1] deals with Mus musculus. Kind of assay: Analgesic activity in formalin-induced nociception CD-1 mouse model assessed as reduction in pain behaviour by measuring less lifting of formalin injected hind paw at 3 mg/kg, ip pretreated with compound 20 mins prior to formalin induction co-treated with AM630 and measured every 5 mins for 1 hr by formalin test. The assay is classed as functional, organism-based.

The test system of assay [2] is Mus musculus. Kind of assay: Analgesic activity in formalin-induced nociception CD-1 mouse model assessed as reduction in pain behaviour by measuring less favoring of formalin injected hind paw at 3 mg/kg, ip pretreated with compound 20 mins prior to formalin induction measured during first phase (0 to 7 mins after formalin injection) by formalin test. Type of assay: functional, organism-based.

Assay [3] has as its system Mus musculus. Kind of assay: Analgesic activity in formalin-induced nociception CD-1 mouse model assessed as reduction in pain behaviour by measuring less shaking of formalin injected hind paw at 3 mg/kg, ip pretreated with compound 20 mins prior to formalin induction measured during second phase (every 5 mins for 15 to 60 mins after formalin injection) by formalin test. Type of assay: functional, organism-based.

Assay [4] has as its system Mus musculus. Kind of assay: Analgesic activity in formalin-induced nociception CD-1 mouse model assessed as reduction in pain behaviour by measuring less favoring of formalin injected hind paw at 3 mg/kg, ip pretreated with compound 20 mins prior to formalin induction measured during second phase (every 5 mins for 15 to 60 mins after formalin injection) by formalin test. The assay is classed as functional, organism-based.

Assay [5] deals with Mus musculus. Kind of assay: Analgesic activity in formalin-induced nociception CD-1 mouse model assessed as reduction in pain behaviour by measuring less licking of formalin injected hind paw at 3 mg/kg, ip pretreated with compound 20 mins prior to formalin induction co-treated with AM251 and measured every 5 mins for 1 hr by formalin test. Type of assay: functional, organism-based.

Assay [6] concerns Mus musculus. Kind of assay: Analgesic activity in formalin-induced nociception CD-1 mouse model assessed as reduction in pain behaviour by measuring less favoring of formalin injected hind paw at 3 mg/kg, ip pretreated with compound 20 mins prior to formalin induction co-treated with AM251 and measured every 5 mins for 1 hr by formalin test. The assay is classed as functional, organism-based.

Assay [7] has as its system Mus musculus. Kind of assay: Analgesic activity in formalin-induced nociception CD-1 mouse model assessed as reduction in pain behaviour by measuring less flinching of formalin injected hind paw at 3 mg/kg, ip pretreated with compound 20 mins prior to formalin induction measured during second phase (every 5 mins for 15 to 60 mins after formalin injection) by formalin test. Type of assay: functional, organism-based.

Assay [8] concerns Mus musculus. Kind of assay: In vivo Cannabi-mimetic activity in C57BL6/J mouse assessed as antinociceptive effect by measuring licking of hind paws at 20 mg/kg, ip measured for 85 mins by hot plate test (reference value: 10.15 +/- 0.70 sec). Type of assay: functional. (Hot-plate and tail-flick tests time the reaction to a heat stimulus.)
The test system of assay [9] is Mus musculus. Kind of assay: Analgesic activity in formalin-induced nociception CD-1 mouse model assessed as reduction in pain behaviour by measuring less flinching of formalin injected hind paw at 3 mg/kg, ip pretreated with compound 20 mins prior to formalin induction measured during first phase (0 to 7 mins after formalin injection) by formalin test. The assay is classed as functional, organism-based.

In assay [10] the test system is Mus musculus. Kind of assay: Analgesic activity in formalin-induced nociception CD-1 mouse model assessed as reduction in pain behaviour by measuring less lifting of formalin injected hind paw at 3 mg/kg, ip pretreated with compound 20 mins prior to formalin induction co-treated with AM251 and measured every 5 mins for 1 hr by formalin test. The assay is classed as functional, organism-based.

The test system of assay [11] is Mus musculus. Kind of assay: In vivo Cannabi-mimetic activity in C57BL6/J mouse assessed as catalepsy bar at 20 mg/kg, ip by bar test (reference value: 3.5 +/- 0.65 sec). The assay is classed as functional.
For assay [12], the system named is Mus musculus. Kind of assay: Analgesic activity in formalin-induced nociception CD-1 mouse model assessed as reduction in pain behaviour by measuring less licking of formalin injected hind paw at 3 mg/kg, ip pretreated with compound 20 mins prior to formalin induction co-treated with AM630 and measured every 5 mins for 1 hr by formalin test. Type of assay: functional, organism-based.

The subject of assay [13] is Mus musculus. Kind of assay: Analgesic activity in formalin-induced nociception CD-1 mouse model assessed as reduction in pain behaviour by measuring less flinching of formalin injected hind paw at 3 mg/kg, ip pretreated with compound 20 mins prior to formalin induction co-treated with AM251 and measured every 5 mins for 1 hr by formalin test. Type of assay: functional, organism-based.

The test system of assay [14] is Mus musculus. Kind of assay: In vivo Cannabi-mimetic activity in C57BL6/J mouse assessed as alteration on the spontaneous activity at 10 mg/kg, ip measured for 15 mins by open field test (reference value: 3283 +/- 390.5 cm). Type of assay: functional.
Assay [15] has as its system Mus musculus. Kind of assay: Analgesic activity in formalin-induced nociception CD-1 mouse model assessed as reduction in pain behaviour by measuring less licking of formalin injected hind paw at 3 mg/kg, ip pretreated with compound 20 mins prior to formalin induction measured during second phase (every 5 mins for 15 to 60 mins after formalin injection) by formalin test. The assay is classed as functional, organism-based.

Assay [16] deals with Mus musculus. Kind of assay: In vivo Cannabi-mimetic activity in C57BL6/J mouse assessed as antinociceptive effect by measuring licking of hind paws at 10 mg/kg, ip measured for 85 mins by hot plate test (reference value: 10.15 +/- 0.70 sec). The assay is classed as functional.
In assay [17] the test system is Mus musculus. Kind of assay: Analgesic activity in formalin-induced nociception CD-1 mouse model assessed as reduction in pain behaviour by measuring less licking of formalin injected hind paw at 3 mg/kg, ip pretreated with compound 20 mins prior to formalin induction measured during first phase (0 to 7 mins after formalin injection) by formalin test. Type of assay: functional, organism-based.

The test system of assay [18] is Mus musculus. Kind of assay: In vivo Cannabi-mimetic activity in C57BL6/J mouse assessed as rectal temperature at 20 mg/kg, ip measured after 50 mins (reference value: 0.53 +/- 0.21 degreeC). The assay is classed as functional.
Assay [19] deals with Mus musculus. Kind of assay: Analgesic activity in formalin-induced nociception CD-1 mouse model assessed as reduction in pain behaviour by measuring less flinching of formalin injected hind paw at 3 mg/kg, ip pretreated with compound 20 mins prior to formalin induction co-treated with AM630 and measured every 5 mins for 1 hr by formalin test. Type of assay: functional, organism-based.

Assay [20] concerns Mus musculus. Kind of assay: Analgesic activity in formalin-induced nociception CD-1 mouse model assessed as reduction in pain behaviour by measuring less shaking of formalin injected hind paw at 3 mg/kg, ip pretreated with compound 20 mins prior to formalin induction measured during first phase (0 to 7 mins after formalin injection) by formalin test. The assay is classed as functional, organism-based.

In assay [21] the test system is Mus musculus. Kind of assay: In vivo Cannabi-mimetic activity in C57BL6/J mouse assessed as rectal temperature at 10 mg/kg, ip measured after 50 mins (reference value: 0.53 +/- 0.21 degreeC). Type of assay: functional.
Assay [22] deals with Mus musculus. Kind of assay: In vivo Cannabi-mimetic activity in C57BL6/J mouse assessed as catalepsy bar at 10 mg/kg, ip by bar test (reference value: 3.5 +/- 0.65 sec). The assay is classed as functional.
Assay [23] has as its system Mus musculus. Kind of assay: Analgesic activity in formalin-induced nociception CD-1 mouse model assessed as reduction in pain behaviour by measuring less shaking of formalin injected hind paw at 3 mg/kg, ip pretreated with compound 20 mins prior to formalin induction co-treated with AM251 and measured every 5 mins for 1 hr by formalin test. Type of assay: functional, organism-based.

The subject of assay [24] is Mus musculus. Kind of assay: Analgesic activity in formalin-induced nociception CD-1 mouse model assessed as reduction in pain behaviour by measuring less lifting of formalin injected hind paw at 3 mg/kg, ip pretreated with compound 20 mins prior to formalin induction measured during second phase (every 5 mins for 15 to 60 mins after formalin injection) by formalin test. Type of assay: functional, organism-based.

The test system of assay [25] is Mus musculus. Kind of assay: Analgesic activity in formalin-induced nociception CD-1 mouse model assessed as reduction in pain behaviour by measuring less shaking of formalin injected hind paw at 3 mg/kg, ip pretreated with compound 20 mins prior to formalin induction co-treated with AM630 and measured every 5 mins for 1 hr by formalin test. The assay is classed as functional, organism-based.

The subject of assay [26] is Mus musculus. Kind of assay: In vivo Cannabi-mimetic activity in C57BL6/J mouse assessed as alteration on the spontaneous activity at 20 mg/kg, ip measured for 15 mins by open field test (reference value: 3283 +/- 390.5 cm). Type of assay: functional.
Assay [27] concerns Mus musculus. Kind of assay: Analgesic activity in formalin-induced nociception CD-1 mouse model assessed as reduction in pain behaviour by measuring less lifting of formalin injected hind paw at 3 mg/kg, ip pretreated with compound 20 mins prior to formalin induction measured during first phase (0 to 7 mins after formalin injection) by formalin test. The assay is classed as functional, organism-based.

Assay [28] relates to Mus musculus. Kind of assay: Analgesic activity in formalin-induced nociception CD-1 mouse model assessed as reduction in pain behaviour by measuring less favoring of formalin injected hind paw at 3 mg/kg, ip pretreated with compound 20 mins prior to formalin induction co-treated with AM630 and measured every 5 mins for 1 hr by formalin test. The assay is classed as functional, organism-based.

Assay [29] concerns the target Cannabinoid receptor 1 (Homo sapiens, UniProt P21554). Kind of assay: Binding affinity to human CB1 receptor.

Chain of Cannabinoid receptor 1 (P21554 whole entry): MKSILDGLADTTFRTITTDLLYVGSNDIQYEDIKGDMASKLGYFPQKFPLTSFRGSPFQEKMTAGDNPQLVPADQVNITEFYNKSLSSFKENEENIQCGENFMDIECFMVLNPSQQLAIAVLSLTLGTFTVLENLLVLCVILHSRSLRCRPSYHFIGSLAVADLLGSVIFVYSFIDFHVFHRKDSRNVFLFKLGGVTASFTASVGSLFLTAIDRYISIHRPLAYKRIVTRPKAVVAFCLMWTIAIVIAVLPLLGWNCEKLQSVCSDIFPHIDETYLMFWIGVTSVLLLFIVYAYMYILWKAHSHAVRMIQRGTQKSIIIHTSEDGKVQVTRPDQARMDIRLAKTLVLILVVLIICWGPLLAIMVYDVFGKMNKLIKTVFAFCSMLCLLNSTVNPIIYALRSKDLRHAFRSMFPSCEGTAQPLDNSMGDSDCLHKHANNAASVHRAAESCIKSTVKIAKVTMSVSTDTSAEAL

As for `CCCCc1cc(O)c2c(c1)OC(C)(C)[C@@H]1CCC(C)=C[C@@H]21`, the result in [1], in [5], in assay [6], in [10], in assay [12] and in [13] was inactive. Besides, the result in assay [19], in assay [23], in assay [25] and in assay [28] was inactive. Moreover, the outcome in assay [2], in assay [3], in assay [4], in [7], in [9] and in [15] was Active. The outcome in assay [17], in assay [20], in assay [24] and in [27] was Active. Further, the Time turned out to be 17.5 s in assay [8], 13 s in [11], 7.94 s in assay [16] and 3 s in [22]. Moreover, the Activity is 3220 cm in [14], 0.4 °C in [18], -0.28 °C in assay [21] and 3591 cm in [26].

As for `CCCc1cc(O)c2c(c1)OC(C)(C)[C@@H]1CCC(C)=C[C@@H]21` [TETRAHYDROCANNABIVARIN], the Ki in [29] was 75.4 nM.

Values taken from ChEMBL document CHEMBL4342449, “Isolation of a High-Affinity Cannabinoid for the Human CB1 Receptor from a Medicinal Cannabis sativa Variety: Δ9-Tetrahydrocannabutol, the Butyl Homologue of Δ9-Tetrahydrocannabinol” (J Nat Prod, 2020).
